This note sets out measurements from US20220143061A1, “3'3'-CYCLIC DINUCLEOTIDES AND PRODRUGS THEREOF” (INSTITUTE OF ORGANIC CHEMISTRY AND BIOCHEMISTRY ASCR, V.V.I., priority 2019, published 2022).

Where two headings read alike, the source gives them in different places.

The target of one assay is T1, AQ STING (G230A-R293Q) (Homo sapiens, UniProt Q86WV6, G230A/H232R/R293Q).
T1 construct: 8xHis (N, cleaved yes); SUMO (N, cleaved yes); made in house
Put plainly: Differential Scanning Fluorimetry with AQ STING. Format: binding. Conditions: thermal shift vs apoprotein; 150 μM CDN; truncated AQ STING 0.1 mg/ml. On the procedure:
(§1) Purified PCR products were cleaved with restriction enzymes BamHI (cat. #R0136S, NEB, Ipswich, USA) and NotI (cat. #R0189S, NEB, Ipswich, USA) and cloned into the pSUMO vector linearized with the identical enzymes.
(§2) DNase I (cat. #D5025, Sigma Aldrich, Czech Republic) and RNase A (cat. #R6513, Sigma Aldrich, Czech Republic) were added (final concentration 50 μg/ml) together with MgCl2 (final concentration 5 mmol·l^−1) to the homogenate and bacteria were lysed using French Press G-M™ High-Pressure Cell Press Homogenizer (1500 psi, 3 cycles). […] The resin was poured into a chromatography column, washed with 50 ml buffer A (50 mmol·l^−1 TrisCl (pH 8.0), 800 mmol·l^−1 NaCl, 3 mmol·l^−1 β-mercaptoethanol; 10% glycerol; 20 mmol·l^−1 imidazole) and 8-His-SUMO tagged STING proteins were eluted with 15 ml buffer A containing 300 mmol·l^−1 imidazole. […] Proteins were concentrated with Amicon® Ultra-15 10 K device (cat. #UFC901008, Merck Millipore, Billerica, USA) and flash frozen in liquid N2.
(§3) 20 μL solutions of the reaction mixtures were pipetted in triplicates into 96 well optical reaction plates and thermal denaturation of samples were performed on real time PCR cycler (LightCycler® 480 Instrument II—Roche, Basel, Switzerland). The first derivative of the thermal denaturation curves was performed to calculate denaturing temperatures of STING-CDN complexes and STING apoproteins. The thermal shift for each CDN was calculated by subtracting the average denaturing temperature of STING apoprotein from the average denaturing temperature of STING CDN complex.

Assay [1] deals with peripheral blood mononuclear cell (PBMC). Briefly: Peripheral blood mononuclear cell assay (cytokine levels). The class given is cell-based. The settings on record: 1 h with compound, wash, 15 hour incubation, average of one to four donors. On the procedure: Selected compounds were tested in an in vitro peripheral blood mononuclear cell (PBMC) assay. […] Serially diluted tested compounds were added to wells in 50 μl of cultivation medium and cell were incubated with compounds for 1 h at 37° C. with 5% CO2. Plates with cells were then spun 500 g for 5 minutes and medium was removed. Cells were washed twice with the cell culture medium by the use of centrifugation and gently resuspended in 100 μl medium without compounds. After 15 hour incubation at 37° C. with 5% CO2, the cell culture medium was collected and the levels of interferon-alpha (INF-α), interferon-gamma (INF-γ) and tumor necrosis factor-alpha (TNF-α) were determined with ProcartaPlex Assays (ThermoFisher, Waltham, USA) and MAGPIX System (Merck KGaA, Darmstadt, Germany). […] Values reported are an average of runs from one to four donors.

In assay [2] the target is T2, human wild type STING (WT STING) (Homo sapiens, UniProt Q86WV6, H232R).
T2 construct: host or cells: 293T cells (ATCC CRL-3216), stably double transfected with pUNO1-hSTING-WT and pGL64.27-4×ISRE
Briefly: 293T WT STING standard reporter assay. Conditions: 293T wtSTING-FL cells, no digitonin, 7 hours; ISRE firefly luciferase; read-out: 293T WT STING EC50. Format: cell-based. The text has this: (§4) Two complementary oligonucleotides of the sequence […] […] […] […] […] The oligonucleotides were mixed in equal molar amounts, hybridized, and cleaved by restriction endonucleases HindIII (cat. #. R0104S, NEB, Ipswich, USA) and BglII (cat. #R0144S, NEB, Ipswich, USA). Ultimately, they were ligated into plasmid pGL4.27 (cat. #E6651, Promega, Madison, USA) linearized with the same enzymes. As result the sequence with four ISRE sites was placed upstream of the minimum promoter of firefly luciferase reporter gene.
(§5) After 5 minutes incubation at room temperature (RT), 250 μL of the mixture was added dropwise to the cells in one well. Cells were incubated 36 hours at 37° C. with 5% CO2, and then detached with 0.05% Trypsin and 0.22 g/L EDTA (both cat. #L0941, Biowest, Riverside, USA).
(§6) Transfected cells were seeded onto poly-D-lysine coated six well plates at density 50,000 cells per 1 cm^2 in DMEM medium with high glucose containing 10% heat inactivated FBS, 30 μg/mL blasticidin (cat. #ant-b1-05, InvivoGen, San Diego, USA), 0.06 mg/ml Penicillin G and 0.1 mg/ml Streptomycin Sulfate (both cat. #. L0018, Biowest, Riverside, USA). The medium was replenished every 3-4 days until visible colonies of cells resistant to blasticidin were formed.
(§7) Blasticidin resistant cells stably expressing WT STING were further transfected with pGL64.27-4×ISRE plasmid following the same procedure as described above. […] Homogeneous culture of stably double transfected cells was prepared by limiting dilution of cells in 96 well plates and wells with cells were selected that originated from a single cell.
The medium was removed the next day and three-fold serial dilutions of compounds in 100 μl medium were added to the cells. The plates were incubated for 7 hours at 37° C. with 5% CO2. Next 50 μl of the medium was removed from wells, and 30 μl of ONE-Glo™ Luciferase Assay System reagent (cat. #E6120, Promega, Madison, USA) was added to each well. Luminescence was read on Synergy H1 (Biotek, Winooski, USA).

Assay [3] concerns the target T2, human wild type STING (WT STING). Put plainly: Digitonin assay using 293T wtSTING-FL reporter cells. Conditions: 293T wtSTING-FL cells, digitonin buffer 30 minutes, then 5 hours; ISRE firefly luciferase. Format: cell-based.
Source text: as §4, §5, §6, §7
The medium was removed next day and three fold serial dilutions of compounds in Digitonin buffer containing 50 mmol·l^−1 HEPES (cat. #H3375, Sigma Aldrich, Czech Republic) pH 7.0, 100 mmol·l^−1 KCl, 3 mmol·l^−1 MgCl2, 0.1 mmol·l^−1 DTT (cat. #D0632, Sigma Aldrich, Czech Republic), 85 mmol·l^−1 Sucrose (cat. #S7903, Sigma Aldrich, Czech Republic), 0.2% BSA (cat. #A2153, Sigma Aldrich, Czech Republic), 1 mmol·l^−1 ATP (cat. #A1852, Sigma Aldrich, Czech Republic), 0.1 mmol·l^−1 GTP (cat. #G8877, Sigma Aldrich, Czech Republic), and 10 μg/mL Digitonin A (cat. #D141, Sigma Aldrich, Czech Republic) were added to the cells. The buffer was removed after 30 minutes incubation at 37° C. with 5% C02, the cells were washed once with 100 μl of cultivation medium, and 100 μl of medium was added to each well. The plates with cells were incubated for 5 hours at 37° C. with 5% CO2, 50 μl of the medium was removed and 30 μl of ONE-Glo™ Luciferase Assay System reagent (cat. #E6120, Promega, Madison, USA) was added to each well. Luminesce was read on Synergy H1 (Biotek, Winooski, USA).

For another assay, the target named is T3, WT STING (Homo sapiens, UniProt Q86WV6, H232R).
T3 construct: 8xHis (N, cleaved yes); SUMO (N, cleaved yes); made in house
Briefly: Differential Scanning Fluorimetry with WT STING. Conditions: thermal shift vs apoprotein; 150 μM CDN; truncated WT STING 0.1 mg/ml. Format: binding. On the procedure: as §1, §2, §3
On the technique in general: Differential scanning fluorimetry follows unfolding on heating by fluorescence.

T3 sequence (Q86WV6 140-343 H232R): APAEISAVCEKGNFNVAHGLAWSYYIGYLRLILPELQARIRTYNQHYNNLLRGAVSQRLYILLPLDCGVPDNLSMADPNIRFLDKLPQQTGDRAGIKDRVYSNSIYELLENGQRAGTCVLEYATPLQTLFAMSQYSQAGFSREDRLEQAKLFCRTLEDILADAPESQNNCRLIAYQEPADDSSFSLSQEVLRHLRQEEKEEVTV
T2 sequence (Q86WV6 whole entry H232R): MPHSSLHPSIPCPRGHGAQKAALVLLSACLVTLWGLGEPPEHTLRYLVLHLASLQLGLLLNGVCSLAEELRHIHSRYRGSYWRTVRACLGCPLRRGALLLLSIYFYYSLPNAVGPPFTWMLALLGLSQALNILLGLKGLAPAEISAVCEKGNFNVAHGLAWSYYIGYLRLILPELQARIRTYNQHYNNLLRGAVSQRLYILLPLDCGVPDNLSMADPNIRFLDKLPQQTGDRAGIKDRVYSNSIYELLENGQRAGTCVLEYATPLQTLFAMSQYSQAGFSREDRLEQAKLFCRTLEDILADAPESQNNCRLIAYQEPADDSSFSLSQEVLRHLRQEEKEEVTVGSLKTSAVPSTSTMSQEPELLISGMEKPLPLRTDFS
T1 sequence (Q86WV6 140-343 G230A/H232R/R293Q): as the sequence (Q86WV6 140-343 H232R) above, with G91A, R154Q counted along it

Broadly, the EC50 is the concentration giving half of the maximal effect. Turning to `Nc1ncnc2c1ncn2[C@@H]1O[C@@H]2COP(=O)(S)O[C@H]3[C@@H](F)[C@H](n4cnc5c(N)ncnc54)O[C@@H]3COP(=O)(O)CO[C@H]2[C@H]1F` (single isomer, unassigned) [Compound 11a], the “DSF ΔTm AQ STING” value at AQ STING (G230A-R293Q) amounted to 9.3 °C. For the same compound, the EC50 turned out to be 400 µM in assay [1] (read-out: PBMC EC50 IFN-α); 130 µM in assay [1] (read-out: PBMC EC50 IFN-γ); 90 µM in assay [1] (read-out: PBMC EC50 TNF-α); 4.5 µM in assay [2]; 0.01 µM in assay [3]. For the same compound, on WT STING, the “DSF ΔTm WT STING” value came out at 4.8 °C.

Take `Nc1ncnc2c1ncn2[C@@H]1O[C@@H]2COP(=O)(S)O[C@H]3[C@@H](F)[C@H](n4cnc5c(N)ncnc54)O[C@@H]3COP(=O)(O)CO[C@H]2[C@H]1F` (single isomer, unassigned) [Compound 11b]: the “DSF ΔTm AQ STING” value on AQ STING (G230A-R293Q) was 18.2 °C. For the same compound, the EC50 in assay [1] (read-out: PBMC EC50 IFN-α) is 123 µM; in assay [1] (read-out: PBMC EC50 IFN-γ), more than 125 µM; in assay [1] (read-out: PBMC EC50 TNF-α) it was 118 µM; in assay [2], 1.4 µM; in assay [3], 0.05 µM. For the same compound, the “DSF ΔTm WT STING” value on WT STING came to 13.6 °C.

Regarding `Nc1ncnc2c1ncn2[C@@H]1O[C@@H]2COP(=O)(S)O[C@H]3[C@@H](F)[C@H](n4cnc5c(N)ncnc54)O[C@@H]3COP(=O)(S)CO[C@H]2[C@H]1F` (single isomer, unassigned) [Compound 14a], the “DSF ΔTm AQ STING” value on AQ STING (G230A-R293Q) turned out to be 16.1 °C. Further, the concentration for a half-maximal effect (EC50) in assay [2] came to 15 µM; in assay [3] it was 0.06 µM. For the same compound, the “DSF ΔTm WT STING” value at WT STING was 8.3 °C.

Regarding `Nc1ncnc2c1ncn2[C@@H]1O[C@@H]2COP(=O)(S)O[C@H]3[C@@H](F)[C@H](n4cnc5c(N)ncnc54)O[C@@H]3COP(=O)(S)CO[C@H]2[C@H]1F` (single isomer, unassigned) [Compound 14b], on AQ STING (G230A-R293Q), the “DSF ΔTm AQ STING” value was 16.7 °C. The half-maximal effective concentration (EC50) in assay [1] (read-out: PBMC EC50 IFN-α) was 46 µM; in assay [1] (read-out: PBMC EC50 IFN-γ), 33 µM; in assay [1] (read-out: PBMC EC50 TNF-α) it was 23 µM; in assay [2] it was 0.2 µM; in assay [3] it was 0.01 µM. Further, the “DSF ΔTm WT STING” value at WT STING stood at 8.6 °C.

On to `Nc1ncnc2c1ncn2[C@@H]1O[C@@H]2COP(=O)(S)O[C@H]3[C@@H](F)[C@H](n4cnc5c(N)ncnc54)O[C@@H]3COP(=O)(S)CO[C@H]2[C@H]1F` (single isomer, unassigned) [Compound 14c], for which the “DSF ΔTm AQ STING” value on AQ STING (G230A-R293Q) was determined as 17.6 °C. Further, the concentration giving a half-maximal response (EC50) in assay [1] (read-out: PBMC EC50 IFN-α) came out at 68 µM; in assay [1] (read-out: PBMC EC50 IFN-γ), 44 µM; in assay [1] (read-out: PBMC EC50 TNF-α), 51 µM; in assay [2], 0.3 µM; in assay [3], 0.007 µM. On WT STING, the “DSF ΔTm WT STING” value stood at 8.2 °C.

Take `Nc1nc2c(ncn2[C@@H]2O[C@@H]3COP(=O)(O)O[C@@H]4[C@H](O)[C@@H](COP(=O)(O)O[C@@H]2[C@@H]3O)O[C@H]4n2cnc3c(N)ncnc32)c(=O)[nH]1` [2′2′-cGAMP, reference compound]: at AQ STING (G230A-R293Q), the “DSF ΔTm AQ STING” value came to 19.4 °C. Further, the concentration giving a half-maximal response (EC50) in assay [2] came out at 10.2 µM; in assay [3] it was 0.03 µM.

As for `Nc1ncnc2c1ncn2[C@@H]1O[C@@H]2COP(=O)(O)O[C@H]3[C@@H](O)[C@H](n4cnc5c(N)ncnc54)O[C@@H]3COP(=O)(O)O[C@H]2[C@H]1O` [3′3′-c-di-AMP, reference compound], on AQ STING (G230A-R293Q), the “DSF ΔTm AQ STING” value worked out at 9.0 °C. The 50% effective concentration (EC50) in assay [2] amounted to 202 µM; in assay [3] it was 0.3 µM. The “DSF ΔTm WT STING” value on WT STING is 2.5 °C.

As to `Nc1ncnc2c1ncn2[C@@H]1O[C@@H]2COP(=O)(O)O[C@H]3[C@@H](F)[C@H](n4cnc5c(N)ncnc54)O[C@@H]3COP(=O)(O)CO[C@H]2[C@H]1F` [Compound 21, (2R,3R,3aR,7aR,9R,10R,10aR,15aR)-2,9-bis(6-amino-9H-purin-9-yl)-3,10-difluoro-5,13-dihydroxydecahydro-2H-difuro[3,2-d:3′,2′-k][1,3,7,10]tetraoxa[2,8]diphosphacyclotridecine 5,13-dioxide], on AQ STING (G230A-R293Q), the “DSF ΔTm AQ STING” value was determined as 16.1 °C. In addition, the EC50 in assay [1] (read-out: PBMC EC50 IFN-α) came out at 100 µM; in assay [1] (read-out: PBMC EC50 IFN-γ) it was 26 µM; in assay [1] (read-out: PBMC EC50 TNF-α), 50 µM; in assay [2], 3.1 µM; in assay [3], 0.01 µM. On WT STING, the “DSF ΔTm WT STING” value is 9.4 °C.
